Several values for one entry are separate records, joined by “and”; a condition that tells them apart may be missing. Equal entries are not always repeated.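 A five-concentration, 48-hour dose response in 96-well plates underlies each endpoint, interpolated linearly between surrounding concentrations. GI50 is the concentration that inhibits growth by half. The concentration for full growth arrest is given as TGI.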
Assays:
Experiment in all cases: inhibition of tumour cell growth, NCI panel, 48 h
ACHN renal = tested on: ACHN renal
CCRF-CEM leukemia = tested on: CCRF-CEM leukemia
HL-60(TB) leukemia = tested on: HL-60(TB) leukemia
KM12 colon = tested on: KM12 colon
NCI-H522 lung = tested on: NCI-H522 lung
SW-620 colon = tested on: SW-620 colon
U251 CNS = tested on: U251 CNS
HCT-15 colon = tested on: HCT-15 colon
NCI-H460 lung = tested on: NCI-H460 lung
MDA-MB-435 = tested on: MDA-MB-435

| SMILES | TGI (ACHN renal) [µM] | TGI (CCRF-CEM leukemia) [µM] | TGI (HL-60(TB) leukemia) [µM] | TGI (KM12 colon) [µM] | TGI (NCI-H522 lung) [µM] | TGI (SW-620 colon) [µM] | TGI (U251 CNS) [µM] | TGI (HCT-15 colon) [µM] | TGI (NCI-H460 lung) [µM] | GI50 (ACHN renal) [µM] | GI50 (CCRF-CEM leukemia) [µM] | GI50 (HCT-15 colon) [µM] | GI50 (HL-60(TB) leukemia) [µM] | GI50 (KM12 colon) [µM] | GI50 (NCI-H460 lung) [µM] | GI50 (NCI-H522 lung) | GI50 (SW-620 colon) [µM] | GI50 (U251 CNS) [µM] | TGI (MDA-MB-435) [µM] | GI50 (MDA-MB-435) [µM] |
| --- | --- | --- | --- | --- | --- | --- | --- | --- | --- | --- | --- | --- | --- | --- | --- | --- | --- | --- | --- | --- |
| CN(C(=O)C12C3C4C1C1C2C3C41C(=O)C(C)(C)C)C(C)(C)C (stereo not drawn) | > 100 | > 100 | > 100 | > 100 | > 100 | > 100 | > 100 | – | – | – | – | – | – | – | – | – | – | – | – | – |
| CCOC(=O)NC(=O)c1cn(C2OC(COC(=O)CCCCCCCCC(=O)OCC3OC(n4cc(C(=O)NC(=O)OCC)c(=O)[nH]c4=O)C(O)C3O)C(O)C2O)c(=O)[nH]c1=O (stereo not drawn) | > 100 | > 100 | > 100 | > 100 | – | > 100 | – | > 100 | > 100 | – | – | – | – | – | – | – | – | – | – | – |
| CC(C)CC(=O)[O-].CC(C)CC(=O)[O-].N.N.N.N.[Co+3].[O-][Cl+3]([O-])([O-])[O-] | > 100 | > 100 | > 100 | > 100 | > 100 | > 100 | > 100 | > 100 | > 100 | > 100 | > 100 | > 100 | > 100 | > 100 | > 100 | 51 µM and 90 µM | > 100 | > 100 | – | – |
| N#CC1(Cc2ccc(N)cc2)c2ccccc2C=CN1C(=O)c1ccccc1 (stereo not drawn) | > 100 | > 100 | 44 | > 100 | > 100 | > 100 | > 100 | – | – | – | – | – | – | – | – | – | – | – | – | – |
| N#C/C(=C/c1ccsc1)C(=O)c1ccccc1 | > 100 | > 100 | > 100 | > 100 | > 100 | > 100 | > 100 | > 100 | > 100 | – | – | – | – | – | – | – | – | – | – | – |
| COc1ccc(OC)c(NC(=O)C(=O)C(C(C)=O)c2nc3ccc(Cl)cc3[nH]c2=O)c1 (stereo not drawn) | > 50 | > 5 | > 50 | > 50 | – | > 50 | > 50 | > 50 | > 50 | – | – | – | – | – | – | – | – | – | – | – |
| COC(=O)CC(=O)C[P+](c1ccccc1)(c1ccccc1)c1ccccc1 | > 218 | > 218 | 149 | > 218 | 86.8 | > 218 | > 218 | 215 | > 218 | – | – | – | – | – | – | – | – | – | – | – |
| O=C1CNCCCN2CCN(CCCNCC(=O)Nc3ccc(cc3)S(=O)(=O)c3ccc(cc3)NC(=O)CNCCCN3CCN(CCCNCC(=O)Nc4ccc(cc4)S(=O)(=O)c4ccc(cc4)N1)CC3)CC2 | > 61.5 | > 100 | – | > 100 | 53.8 | > 100 | > 61.8 | > 54.8 | 33.8 | – | – | – | – | – | – | – | – | – | > 58.8 | – |
| O=C(N/N=C/c1ccccc1O)c1cccc([N+](=O)[O-])c1 | > 100 | > 100 | > 39.3 | > 100 | > 100 | > 100 | > 100 | > 100 | > 100 | – | – | – | – | – | – | – | – | – | – | – |
| COc1cc(/C=C/c2cc(/C=C/c3ccc(O)c(OC)c3)n(-c3ccccc3)n2)ccc1O | – | > 100 | 0.774 | 1.29 | – | – | – | – | – | – | 0.127 | – | 0.271 | 0.315 | – | – | – | – | 0.191 | 0.0415 |
| Clc1ccc(C2N3CCCCC3[C@@H]3c4[nH]c5ccccc5c4CCN23)cc1 (stereo partly drawn) | > 100 | > 100 | 55 | – | – | > 100 | > 100 | > 100 | > 100 | – | – | – | – | – | – | – | – | – | – | – |
| CCCCN(CCCC)C(=O)C(=O)C(C#N)c1ccc(C)cc1 (stereo not drawn) | > 100 | > 100 | > 100 | > 100 | > 100 | > 100 | > 100 | > 100 | > 100 | – | – | – | – | – | – | – | – | – | – | – |
| COc1ccc2ccc3c(c2c1)CN1CCc2cc(OC)c(OC)cc2C1C3 (stereo not drawn) | > 100 | > 100 | > 100 | > 100 | > 100 | > 100 | > 100 | > 100 | > 100 | – | – | – | – | – | – | – | – | – | – | – |
| Cc1ccc(S(=O)(=O)C(CC(=O)N2CCCC2)C(=O)c2ccccc2)cc1 (stereo not drawn) | > 100 | 62.5 | 52.7 | > 100 | > 100 | > 100 | > 100 | – | > 100 | – | – | – | – | – | – | – | – | – | – | – |
| O=C1OCc2c1cc1ccc(O)c(OC3OC(CO)C(O)C(O)C3O)c1c2-c1ccc2c(c1)OCO2 (stereo not drawn) | > 100 | > 100 | – | > 100 | 59.9 | > 100 | > 100 | > 100 | > 100 | – | 34.9 | – | – | 23.4 | – | 22.6 µM | – | – | – | – |
| COC(=O)C1=C(C(=O)OC)C2C=CC1C1C(Cl)=C(Cl)C21 (stereo not drawn) | > 100 | > 100 | – | > 100 | > 100 | > 100 | > 100 | > 100 | > 100 | – | – | – | – | – | – | – | – | – | – | – |
| COc1ccc(/C(=C2\O[C@@H]([C@H]3COC(C)(C)O3)[C@H]3OC(C)(C)O[C@@H]23)c2cc(OC)c(OC)c(OC)c2)cc1O | > 100 | > 100 | 23.3 | > 100 | 9.08 | > 100 | 48.2 | > 100 | > 100 | 9.31 | 3.75 | 4.51 | 3.39 | 3.99 | 4.31 | 2.73 µM | 4.05 | 3.84 | – | – |
| OCCC1(O)CCC(O)CC1 (stereo not drawn) | – | > 100 | > 100 | > 100 | > 100 | > 100 | > 100 | > 100 | > 100 | – | – | – | – | – | – | – | – | – | – | – |
| COC1C(CN[N+](=O)CC2OC3OC(C)(C)OC3C2OC)OC2OC(C)(C)OC21 (stereo not drawn) | > 100 | > 100 | > 100 | > 100 | – | > 100 | > 100 | > 100 | > 100 | – | – | – | – | – | – | – | – | – | – | – |
| CC1=C(C(=O)Nc2ccc([N+](=O)[O-])cc2)C(c2ccc(N(C)C)cc2)C(C(=O)Nc2ccc([N+](=O)[O-])cc2)=C(C)N1 | 43.6 | 60.7 | 38.7 | 37 | 25.6 | 69.8 | 66.5 | – | 45.3 | – | – | – | – | – | – | – | – | – | – | – |
| C=C(CN1CCc2ccccc2C1)c1ccc(C(=O)Nc2cnccn2)cc1 | > 100 | > 100 | 14 | 56.5 | 42.5 | > 100 | > 100 | > 100 | > 100 | 30.8 | 5.42 | 28.8 | 3.55 | 12.5 | 36.3 | 18.2 µM | 42.3 | 16.2 | – | – |
